Test results published in patent US20060235076A1, “Medicinal composition for treating infection with drug-resistant staphylococcus aureus” (priority 2003, published 2006).
≈ marks a conversion by molar mass, not a printed value. Read-outs that look alike come from different tables or passages of the source.

Assays:
[1] = tested on: MRSA COL and MRSA Strain No. 5; experiment: Potentiating effect of various gallates for antibacterial activity of oxacillin (MIC by broth microdilution method and FIC); format: cell-based, Staphylococcus aureus; details: for FIC value: combination with oxacillin
Description: According to the broth microdilution method defined by Japan Society of Chemotherapy, MIC was determined. CAMHA was prepared by adding 50 mg/l of Ca-ion, 25 mg/l of Mg-ion, and 2% of NaCl to MHB (Mueller-Hinton Broth), and it was used as a medium for use in the measurement of sensitivity. In 96-well microplates 100 μl of the medium for use in the measurement of sensitivity containing drugs was dispensed. The bacterial liquid was incubated at 37° C. overnight, diluted with saline and added to the plate so that the final concentration of the bacteria was 5×10^5 CFU/well. […] FIC (fractional inhibitory concentration) was calculated from the result and the potency of the effect of the combination use was evaluated.

MRSA and MSSA = experiment: Antibacterial activity of gallic acid, various gallates and multivalent phenol derivatives alone (agar plate dilution method, MIC); format: cell-based, Staphylococcus aureus; details: Staphylococcus aureus
Description: According to the agar plate dilution method defined by Japan Society of Chemotherapy, MIC (Minimum inhibitory concentration) was determined. CAMHA was prepared by adding 50 mg/l of Ca-ion, 25 mg/l of Mg-ion, and 2% of NaCl to Mueller-Hinton II Agar (MHA), and it was used as a medium for use in the measurement of sensitivity. The bacterial liquid was incubated at 37° C. overnight and diluted to 10^6 CFU/ml with saline.
MIC for gallic acid, various gallates and multivalent phenol derivatives alone with MRSA and MSSA were determined as described in experiment 2.

[2] = MSSA #1003, read-out: MIC alone
[3] = MSSA #1010, read-out: MIC alone
[4] = MSSA #1020, read-out: MIC alone
[5] = MSSA #1023, read-out: MIC alone
[6] = MSSA #1029, read-out: MIC alone
[7] = MSSA #1032, read-out: MIC alone

SMILES: CCCCCCCCCOC(=O)c1cc(O)c(O)c(O)c1 [Nonyl gallate, n-nonyl gallate]
- antibacterial activity when used alone ([1]; COL Strain and Strain No. 5): most potent
- FIC value ([1]; MRSA COL): 0.625
- FIC value ([1]; MRSA Strain No. 5): 0.502
- MIC50 (MRSA and MSSA): 15.7 µg/mL (≈ 53 µM)
- MIC (MRSA and MSSA; ATCC 6538 / MRSA / MSSA, read-out: MIC alone): 15.7 µg/mL (≈ 53 µM)
- MIC (MRSA and MSSA; COL, read-out: MIC alone): 15.7 µg/mL (≈ 53 µM)
- MIC (MRSA and MSSA; MRSA #1, read-out: MIC alone): 15.7 µg/mL (≈ 53 µM)
- MIC (MRSA and MSSA; MRSA #2, read-out: MIC alone): 15.7 µg/mL (≈ 53 µM)
- MIC (MRSA and MSSA; MRSA #3, read-out: MIC alone): 15.7 µg/mL (≈ 53 µM)
- MIC (MRSA and MSSA; MRSA #4, read-out: MIC alone): 15.7 µg/mL (≈ 53 µM)
- MIC (MRSA and MSSA; MRSA #5, read-out: MIC alone): 15.7 µg/mL (≈ 53 µM)
- MIC (MRSA and MSSA; MRSA #6, read-out: MIC alone): 15.7 µg/mL (≈ 53 µM)
- MIC (MRSA and MSSA; MRSA #7, read-out: MIC alone): 15.7 µg/mL (≈ 53 µM)
- MIC (MRSA and MSSA; MRSA #8, read-out: MIC alone): 15.7 µg/mL (≈ 53 µM)
- MIC (MRSA and MSSA; MRSA #9, read-out: MIC alone): 15.7 µg/mL (≈ 53 µM)
- MIC (MRSA and MSSA; MRSA #10, read-out: MIC alone): 15.7 µg/mL (≈ 53 µM)
- MIC (MRSA and MSSA; MRSA #12, read-out: MIC alone): 15.7 µg/mL (≈ 53 µM)
- MIC (MRSA and MSSA; MRSA #16, read-out: MIC alone): 15.7 µg/mL (≈ 53 µM)
- MIC (MRSA and MSSA; MRSA #17, read-out: MIC alone): 15.7 µg/mL (≈ 53 µM)
- MIC (MRSA and MSSA; MRSA #18, read-out: MIC alone): 15.7 µg/mL (≈ 53 µM)
- MIC (MRSA and MSSA; MRSA #20, read-out: MIC alone): 15.7 µg/mL (≈ 53 µM)
- MIC (MRSA and MSSA; MRSA #21, read-out: MIC alone): 15.7 µg/mL (≈ 53 µM)
- MIC (MRSA and MSSA; MRSA #22, read-out: MIC alone): 15.7 µg/mL (≈ 53 µM)
- MIC (MRSA and MSSA; MRSA #24, read-out: MIC alone): 15.7 µg/mL (≈ 53 µM)
- MIC (MRSA and MSSA; MRSA and MSSR, read-out: MIC alone): 15.7 µg/mL (≈ 53 µM)
- MIC (MRSA and MSSA; [2]): 15.7 µg/mL (≈ 53 µM)
- MIC (MRSA and MSSA; [3]): 15.7 µg/mL (≈ 53 µM)
- MIC (MRSA and MSSA; [4]): 15.7 µg/mL (≈ 53 µM)
- MIC (MRSA and MSSA; [5]): 15.7 µg/mL (≈ 53 µM)
- MIC (MRSA and MSSA; [6]): 15.7 µg/mL (≈ 53 µM)
- MIC (MRSA and MSSA; [7]): 15.7 µg/mL (≈ 53 µM)

SMILES: CCCCCCOC(=O)c1cc(O)c(O)c(O)c1 [Hexyl gallate, n-hexyl gallate]
- FIC value ([1]; MRSA COL): 0.5
- FIC value ([1]; MRSA Strain No. 5): 0.502
- MIC50 (MRSA and MSSA): 62.5 µg/mL (≈ 246 µM)
- MIC (MRSA and MSSA; ATCC 6538 / MRSA / MSSA, ATCC6538, read-out: MIC alone): 31.3 µg/mL (≈ 123 µM)
- MIC (MRSA and MSSA; COL, read-out: MIC alone): 31.3 µg/mL (≈ 123 µM)
- MIC (MRSA and MSSA; MRSA #1, read-out: MIC alone): 62.5 µg/mL (≈ 246 µM)
- MIC (MRSA and MSSA; MRSA #2, read-out: MIC alone): 31.3 µg/mL (≈ 123 µM)
- MIC (MRSA and MSSA; MRSA #3, read-out: MIC alone): 31.3 µg/mL (≈ 123 µM)
- MIC (MRSA and MSSA; MRSA #4, read-out: MIC alone): 31.3 µg/mL (≈ 123 µM)
- MIC (MRSA and MSSA; MRSA #5, read-out: MIC alone): 31.3 µg/mL (≈ 123 µM)
- MIC (MRSA and MSSA; MRSA #6, read-out: MIC alone): 31.3 µg/mL (≈ 123 µM)
- MIC (MRSA and MSSA; MRSA #7, read-out: MIC alone): 31.3 µg/mL (≈ 123 µM)
- MIC (MRSA and MSSA; MRSA #8, read-out: MIC alone): 31.3 µg/mL (≈ 123 µM)
- MIC (MRSA and MSSA; MRSA #9, read-out: MIC alone): 31.3 µg/mL (≈ 123 µM)
- MIC (MRSA and MSSA; MRSA #10, read-out: MIC alone): 31.3 µg/mL (≈ 123 µM)
- MIC (MRSA and MSSA; MRSA #12, read-out: MIC alone): 62.5 µg/mL (≈ 246 µM)
- MIC (MRSA and MSSA; MRSA #16, read-out: MIC alone): 62.5 µg/mL (≈ 246 µM)
- MIC (MRSA and MSSA; MRSA #17, read-out: MIC alone): 62.5 µg/mL (≈ 246 µM)
- MIC (MRSA and MSSA; MRSA #18, read-out: MIC alone): 62.5 µg/mL (≈ 246 µM)
- MIC (MRSA and MSSA; MRSA #20, read-out: MIC alone): 62.5 µg/mL (≈ 246 µM)
- MIC (MRSA and MSSA; MRSA #21, read-out: MIC alone): 62.5 µg/mL (≈ 246 µM)
- MIC (MRSA and MSSA; MRSA #22, read-out: MIC alone): 62.5 µg/mL (≈ 246 µM)
- MIC (MRSA and MSSA; MRSA #24, read-out: MIC alone): 62.5 µg/mL (≈ 246 µM)
- MIC (MRSA and MSSA; [2]): 62.5 µg/mL (≈ 246 µM)
- MIC (MRSA and MSSA; [3]): 62.5 µg/mL (≈ 246 µM)
- MIC (MRSA and MSSA; [4]): 62.5 µg/mL (≈ 246 µM)
- MIC (MRSA and MSSA; [5]): 62.5 µg/mL (≈ 246 µM)
- MIC (MRSA and MSSA; [6]): 62.5 µg/mL (≈ 246 µM)
- MIC (MRSA and MSSA; [7]): 62.5 µg/mL (≈ 246 µM)

SMILES: CCCCCCCCCCCCOC(=O)c1cc(O)c(O)c(O)c1 [Lauryl gallate, n-lauryl gallate]
- FIC value ([1]; MRSA COL): 0.531
- FIC value ([1]; MRSA Strain No. 5): 0.375
- MIC (MRSA and MSSA; ATCC 6538 / MRSA / MSSA, ATCC6538, compound alone, read-out: MIC): 62.5 µg/mL (≈ 185 µM)
- MIC (MRSA and MSSA; COL, compound alone, read-out: MIC): 31.3 µg/mL (≈ 92.5 µM)
- MIC (MRSA and MSSA; MRSA #1, compound alone, read-out: MIC): 62.5 µg/mL (≈ 185 µM)
- MIC (MRSA and MSSA; MRSA #2, compound alone, read-out: MIC): 62.5 µg/mL (≈ 185 µM)
- MIC (MRSA and MSSA; MRSA #3, compound alone, read-out: MIC): 62.5 µg/mL (≈ 185 µM)
- MIC (MRSA and MSSA; MRSA #4, compound alone, read-out: MIC): 62.5 µg/mL (≈ 185 µM)
- MIC (MRSA and MSSA; MRSA #5, compound alone, read-out: MIC): 62.5 µg/mL (≈ 185 µM)
- MIC (MRSA and MSSA; MRSA #6, compound alone, read-out: MIC): 31.3 µg/mL (≈ 92.5 µM)
- MIC (MRSA and MSSA; MRSA #7, compound alone, read-out: MIC): 31.3 µg/mL (≈ 92.5 µM)
- MIC (MRSA and MSSA; MRSA #8, compound alone, read-out: MIC): 31.3 µg/mL (≈ 92.5 µM)
- MIC (MRSA and MSSA; MRSA #9, compound alone, read-out: MIC): 31.3 µg/mL (≈ 92.5 µM)
- MIC (MRSA and MSSA; MRSA #10, compound alone, read-out: MIC): 15.6 µg/mL (≈ 46.1 µM)
- MIC (MRSA and MSSA; MRSA #12, compound alone, read-out: MIC): 62.5 µg/mL (≈ 185 µM)
- MIC (MRSA and MSSA; MRSA #16, compound alone, read-out: MIC): 62.5 µg/mL (≈ 185 µM)
- MIC (MRSA and MSSA; MRSA #17, compound alone, read-out: MIC): 62.5 µg/mL (≈ 185 µM)
- MIC (MRSA and MSSA; MRSA #18, compound alone, read-out: MIC): 62.5 µg/mL (≈ 185 µM)
- MIC (MRSA and MSSA; MRSA #20, compound alone, read-out: MIC): 62.5 µg/mL (≈ 185 µM)
- MIC (MRSA and MSSA; MRSA #21, compound alone, read-out: MIC): 62.5 µg/mL (≈ 185 µM)
- MIC (MRSA and MSSA; MRSA #22, compound alone, read-out: MIC): 62.5 µg/mL (≈ 185 µM)
- MIC (MRSA and MSSA; MRSA #24, compound alone, read-out: MIC): 62.5 µg/mL (≈ 185 µM)
- MIC (MRSA and MSSA; MSSA #1003, compound alone, read-out: MIC): 62.6 µg/mL (≈ 185 µM)
- MIC (MRSA and MSSA; MSSA #1010, compound alone, read-out: MIC): 62.5 µg/mL (≈ 185 µM)
- MIC (MRSA and MSSA; MSSA #1020, compound alone, read-out: MIC): 62.5 µg/mL (≈ 185 µM)
- MIC (MRSA and MSSA; MSSA #1023, compound alone, read-out: MIC): 62.5 µg/mL (≈ 185 µM)
- MIC (MRSA and MSSA; MSSA #1029, compound alone, read-out: MIC): 62.5 µg/mL (≈ 185 µM)
- MIC (MRSA and MSSA; MSSA #1032, compound alone, read-out: MIC): 62.5 µg/mL (≈ 185 µM)
- MIC50 (MRSA and MSSA; over all strains of Table 3-2, compound alone, read-out: MIC50): 62.5 µg/mL (≈ 185 µM)
